Source: patent US8088806B2 (Achillion Pharmaceuticals, Inc., priority 2005, dated 2012)

tested on: HCV replicon; assay: Replicon based assay of HCV replication inhibition (NPT ELISA); assay type: cell-based, Hepatitis C virus; settings: Hepatitis C virus, Huh-7, 72 h, Table I; Huh-7 HCV replicon-containing cells, three days; read-out: Activity
Procedure: Compounds claimed herein are tested for the ability to inhibit viral replication of the Hepatitis C replicon in cultured cells in which the HCV replicon construct has been incorporated. The HCV replicon system was described by Bartenschlager, et. al (Science, 285, pp. 110-113 (1999)). The replicon system is predictive of in vivo anti-HCV activity; compounds that are active in humans uniformly evidence activity in the replicon assay.
In this assay HCV replicon containing cells are treated with different concentrations of the test compound to ascertain the ability of the test compound to suppress replication of the HCV replicon. As a positive control, HCV replicon-containing cells are treated with different concentrations of interferon alpha, a known inhibitor of HCV replication. The replicon assay system includes Neomycin Phosphotransferase (NPT) as a component of the replicon itself in order to detect the transcription of replicon gene products in the host cell. Cells in which the HCV replicon is actively replicating have high levels of NPT; the level of NPT is proportional to HCV replication. […] The NPT level of each sample is measured using a captured ELISA.
A protocol for testing compounds for the ability to inhibit viral replication of the Hepatitis C replicon cultured cells in which the replicon construct has been incorporated, follows.
The HCV replicon contains, 5′-3′, the HCV-IRES, the neomycin phosphotransferase (neo) gene, the IRES of encephalomyocarditis virus, which directs translation of HCV sequences NS3 to NS5B, and the 3′-NTR. The sequence of the HCV replicon has been deposited in GenBank (Accession no. AJ242652).
The replicon is transfected into Huh-7 cells using standard methods such as electroporation.
The equipment and materials include, but are not limited to, Huh-7 HCV replicon-containing cells, maintenance media (DMEM (Dulbecco's modified Eagle media) supplemented with 10% FBS, L-glutamine, non-essential amino acids, penicillin (100 units/ml), streptomycin (100 micrograms/ml), and 500 micrograms/ml of Geneticin (G418), screening media (DMEM supplemented with 10% FBS, L-glutamine, non-essential amino acids, penicillin (100 units/ml) and streptomycin (100 micrograms/ml)), 96 well tissue culture plates (flat bottom), 96 well plates (U bottom for drug dilution), Interferon alpha for positive control, fixation reagent (such as methanol: acetone), primary antibody (rabbit anti-NPTII), secondary antibody: Eu-N1l, and enhancement solution.
The cells are then seeded onto 96-well plates at a density of 6000-7500 cells/100 microliters/well (6-7.5×10^5 cells/10 ml/plate). The plates are then incubated at 37° C. in a 5% CO2 incubator.
HCV replicon-containing cells are rinsed with once PBS once; 2 mls of trypsin are then added. Cells are incubated at 37° C. in a 5% CO2 incubator for 3-5 minutes. 10 mls of complete medium is added to stop the reaction. Cells are blown gently, put into a 15 ml tube, and spun at 1200 rpm for four minutes. The trypsin/medium solution is removed and 5 mls of medium (500 ml DMEM (high glucose)) from BRL catalog #12430-054; 50 mls 10% FBS, 5% Geneticin G418 (50 mg/ml, BRL catalog #10131-035), 5 ml MEM non-essential amino acids (100×BRL #11140-050) and 5 ml pen-strep (BRL # 15140-148) is added. The cells and media are mixed carefully
Cells are plated with screening medium (500 ml DMEM (BRL #21063-029), 50 ml FBS (BRL #10082-147) and 5 ml MEM non-essential amino acid (BRL #11140-050) at 6000-7500 cells/100 μl/well of 96 well plate (6-7.5×10^5 cells/10 ml/plate). Plates are placed into 37° C. 5% CO2 incubator overnight.
The following morning, drugs (test compounds or interferon alpha) are diluted in 96 well U bottom plates with media or DMSO/media, depending on the final concentration chosen for screening. Generally for 6 concentrations of each test compounds ranging from 10 micromolar to 0.03 micromolar are applied. […]

Structure (SMILES) | EC50
c1ccc(Cc2cccc(Nc3nc(-c4cccnc4)cs3)c2)cc1 [compound 97, N-(3-benzylphenyl)-4-(pyridin-3-yl)thiazol-2-amine] | < 1 µM
CCCCCOc1ccc(Nc2nc(-c3cc(C(=O)OCC)no3)cs2)cn1 [compound 180, ethyl 5-(2-(6-(pentyloxy)pyridin-3-ylamino)thiazol-4-yl)isoxazole-3-carboxylate] | > 10 µM
CCCCCOc1ccc(Nc2nc(CN3CCOCC3)cs2)cc1C(F)(F)F [compound 171, N-(3-(trifluoromethyl)-4-(pentyloxy)phenyl)-4-(morpholinomethyl)thiazol-2-amine] | < 1 µM
CCCCCOc1ccc(Nc2nc(-c3ccc(CC(=O)O)cc3)c(C)s2)cc1C(F)(F)F [compound 197, 2-(4-(2-(3-(trifluoromethyl)-4-(pentloxy)phenylamino)-5-methylthiazol-4-yl)phenyl)acetic acid] | < 1 µM
FC(F)(F)c1cc(Nc2nc(-c3ccc(Cl)cc3)cs2)ccc1Cl [compound 62, N-(4-chloro-3-(trifluoromethyl)phenyl)-4-(4-chlorophenyl)thiazol-2-amine] | > 10 µM
N#Cc1cccc(Nc2nc(-c3ccc(Cl)cc3)cs2)c1 [compound 58, 3-(4-(4-chlorophenyl)thiazol-2-ylamino)benzonitrile] | > 10 µM
c1cncc(-c2csc(Nc3ccc(CN4CCCCC4)cc3)n2)c1 [compound 69, N-(4-((piperidin-1-yl)methyl)phenyl)-4-(pyridin-3-yl)thiazol-2-amine] | > 10 µM

same assay, conditions: Hepatitis C virus, Huh-7, 72 h, Table III; Huh-7 HCV replicon-containing cells, three days; read-out: Activity

Structure (SMILES) | EC50
CCCC/C=C\CCOc1ccc(Nc2nc(-c3ccc(F)cc3)cs2)cc1C(F)(F)F [compound 533, N-(4-((Z)-oct-3-enyloxy)-3-(trifluoromethyl)phenyl)-4-(4-fluorophenyl)thiazol-2-amine] | < 1 µM
CCCCCCCCOc1ccc(Nc2nc(-c3ccc(O)c(O)c3)cs2)cc1C(F)(F)F [compound 583, 4-(2-(3-(trifluoromethyl)-4-(octyloxy)phenylamino)thiazol-4-yl)benzene-1,2-diol] | < 1 µM
CCCCCCCCc1ccc(Nc2nc(-c3ccc(F)cc3)cs2)cc1 [compound 544, 4-(4-fluorophenyl)-N-(4-octylphenyl)thiazol-2-amine] | < 1 µM
CCCCCCCCSc1ccc(Nc2nc(-c3cccnc3)cs2)cc1C(F)(F)F [compound 692, N-(3-(trifluoromethyl)-4-(octylthio)phenyl)-4-(pyridin-3-yl)thiazol-2-amine] | < 1 µM
CCCCCOc1ccc(Nc2nc(Cc3ccc(F)cc3)cs2)cc1C(F)(F)F [compound 627, 4-(4-fluorobenzyl)-N-(3-(trifluoromethyl)-4-(pentyloxy)phenyl)thiazol-2-amine] | < 1 µM
CCCCCCCCOc1ccc(Nc2nc(-c3cncc(C(=O)N(C)C)c3)cs2)cc1 [compound 649, 5-(2-(4-(octyloxy)phenylamino)thiazol-4-yl)-N,N-dimethylpyridine-3-carboxamide] | 1 to 10 µM
CCCCCCCCc1ccc(Nc2nc(-c3ccc[n+]([O-])c3)cs2)cc1 [compound 524] | < 1 µM

same assay, conditions: Hepatitis C virus, replicon based assay of HCV replication inhibition; Table II; read-out: Activity

Structure (SMILES) | EC50
CC(C)COc1ccc(Nc2nc(-c3ccc(F)cc3)cs2)cc1C(F)(F)F [compound 242, 4-(4-fluorophenyl)-N-(4-isobutoxy-3-(trifluoromethyl)phenyl)thia-zol-2-amine] | < 1 µM
CCCCCOc1ccc(Nc2nc(CN3CCC[C@@H]3C(=O)O)cs2)cc1F [compound 294, (R)-1-((2-(3-fluoro-4-(pentyloxy)phenylamino)thia-zol-4-yl)methyl)pyrrolidine-2-carboxylic acid] | 1 to 10 µM
CCCCCOc1ccc(Nc2nc(CN3CCC(C(=O)O)CC3)cs2)cc1C(F)(F)F [compound 274, 1-((2-(4-(pentyloxy)-3-(trifluoromethyl)phenyl-amino)thiazol-4-yl)methyl)piperidine-4-carboxylic acid] | < 1 µM
CCCCCCCOc1ccc(Nc2nc(-c3cc4ccccc4o3)cs2)cc1 [compound 401, 4-(benzofuran-2-yl)-N-(4-(heptyloxy)phenyl)thiazol-2-amine] | 1 to 10 µM
COc1ccc(-c2csc(Nc3ccc(OCC(C)C)c(C(F)(F)F)c3)n2)cc1 [compound 249, N-(4-isobutoxy-3-(trifluoromethyl)phenyl)-4-(4-methoxyphenyl)thiazol-2-amine] | < 1 µM
CCCCCOc1ccc(Nc2nc(-c3cccnc3)c(C(=O)OC)s2)cc1C(F)(F)F [compound 443, methyl 2-(3-(trifluoromethyl)-4-(pentyloxy)phenylamino)-4-(pyridin-3-yl)thiazol-5-carboxylate] | < 1 µM
CCCCCOc1ccc(Nc2nc(C3CCCN(C(=O)OC(C)(C)C)C3)cs2)cc1C(F)(F)F (stereo not shown) [compound 224, tert-butyl 3-(2-(4-(pentyloxy)-3-(trifluoromethyl)phenyl-amino)thiazol-4-yl)piperidine-1-carboxylate] | < 1 µM
CC(=O)Nc1ccc(Nc2nc(-c3cccs3)cs2)cc1 [compound 429, N-(4-(4-(thiophen-2-yl)thiazol-2-ylamino)phenyl)acetamide] | > 10 µM

same assay, conditions: Hepatitis C virus, replicon based assay of HCV replication inhibition; Table IV; read-out: Activity

Structure (SMILES) | EC50
c1ccc(CCc2ccc(Nc3nc(-c4cccnc4)cs3)cc2)cc1 [compound 757, N-(4-phenethylphenyl)-4-(pyridin-3-yl)thiazol-2-amine] | < 1 µM
CCCCCCCCOc1ccc(Nc2nc(-c3c[nH]nc3C#N)cs2)cc1C(F)(F)F [compound 809, 4-(2-(3-(trifluoromethyl)-4-(octyloxy)phenylamino)thiazol-4-yl)-1H-pyrazole-3-carbonitrile] | < 1 µM
CCCCCCCCOc1ccc(Nc2nc(-c3ccc(OC)nc3)cs2)cc1C(F)(F)F [compound 734, N-(3-(trifluoromethyl)-4-(octyloxy)phenyl)-4-(6-methoxypyridin-3-yl)thiazol-2-amine] | < 1 µM
CCOC(=O)Cc1ccc(-c2csc(Nc3ccc(OCCOc4ccccc4)c(C(F)(F)F)c3)n2)s1 [compound 933, ethyl 2-(5-(2-(4-(2-phenoxyethoxy)-3-(trifluoromethyl)phenylamino)thiazol-4-yl)thiophen-2-yl)acetate] | 1 to 10 µM
COc1ccc2cc(-c3csc(Nc4ccc(OCC5CCCCC5)c(C(F)(F)F)c4)n3)ccc2c1 [compound 773, N-(4-(cyclohexylmethoxy)-3-(trifluoromethyl)phenyl)-4-(2-methoxynaphthalen-6-yl)thiazol-2-amine] | < 1 µM
N#Cc1cncc(-c2csc(Nc3ccc(OCC4CCCCC4)c(F)c3)n2)c1 [compound 728, 5-(2-(4-(cyclohexylmethoxy)-3-fluorophenylamino)thiazol-4-yl)pyridine-3-carbonitrile] | < 1 µM
O=C(O)Cc1ccc(-c2csc(Nc3ccc(OCCCc4ccco4)c(C(F)(F)F)c3)n2)s1 [compound 943, 2-(5-(2-(4-(3-(furan-2-yl)propoxy)-3-(trifluoromethyl)phenylamino)thiazol-4-yl)thiophen-2-yl)acetic acid] | < 1 µM
Cc1sc(Nc2ccc(OCCCc3ccccc3)c(F)c2)nc1-c1cccnc1 [compound 855, N-(4-(3-phenylpropoxy)-3-fluorophenyl)-5-methyl-4-(pyridin-3-yl)thiazol-2-amine] | > 10 µM
CCCCCCCCOC(=O)c1ccc(Nc2nc(-c3cnc(OC)nc3)cs2)cc1C(F)(F)F [compound 779, octyl 4-(4-(2-methoxypyrimidin-5-yl)thiazol-2-ylamino)-2-(trifluoromethyl)benzoate] | < 1 µM
